According to PMC5762315, “Inhibition of polo-like kinase 4 (PLK4): a new therapeutic option for rhabdoid tumors and pediatric medulloblastoma” (Oncotarget, 2017):
pIC50: −log10 of the molar value. Values joined by “and” are separate entries in the source; they are usually repeats but may differ in a detail not shown here. Equal entries are not always repeated.

Columns and labels:
various kinases [1] = target: various kinases (Homo sapiens, UniProt P00519, Q252H); assay: LanthaScreen Eu Kinase Binding Assay, panel of 486 biochemical kinase assays; conditions: ABL1 Q252H
various kinases [2] = target: various kinases (Homo sapiens, UniProt Q9UM73, R1275Q); assay: as above; conditions: ALK R1275Q
various kinases [3] = target: various kinases (Homo sapiens, UniProt Q9H093); assay: as above; conditions: NUAK2
various kinases [4] = target: various kinases (Homo sapiens, UniProt Q2M2I8); assay: as above; conditions: AAK1
various kinases [5] = target: various kinases (Homo sapiens, UniProt Q8WXR4); assay: as above; conditions: MYO3B (MYO3 beta)
various kinases [6] = target: various kinases (Homo sapiens, UniProt P10721, D816V); assay: as above; conditions: KIT D816V
various kinases [7] = target: various kinases (Homo sapiens, UniProt Q86UX6); assay: as above; conditions: kinase STK32C (YANK3); LanthaScreen Binding
various kinases [8] = target: various kinases (Homo sapiens, UniProt Q9UBE8); assay: as above; conditions: NLK
various kinases [9] = target: various kinases (Homo sapiens, UniProt Q12866, A708S); assay: as above; conditions: MERTK (cMER) A708S
various kinases [10] = target: T1, various kinases (Homo sapiens, UniProt Q8IYT8); assay: as above; conditions: kinase ULK2; LanthaScreen Binding
T1 sequence (Q8IYT8 1-1036): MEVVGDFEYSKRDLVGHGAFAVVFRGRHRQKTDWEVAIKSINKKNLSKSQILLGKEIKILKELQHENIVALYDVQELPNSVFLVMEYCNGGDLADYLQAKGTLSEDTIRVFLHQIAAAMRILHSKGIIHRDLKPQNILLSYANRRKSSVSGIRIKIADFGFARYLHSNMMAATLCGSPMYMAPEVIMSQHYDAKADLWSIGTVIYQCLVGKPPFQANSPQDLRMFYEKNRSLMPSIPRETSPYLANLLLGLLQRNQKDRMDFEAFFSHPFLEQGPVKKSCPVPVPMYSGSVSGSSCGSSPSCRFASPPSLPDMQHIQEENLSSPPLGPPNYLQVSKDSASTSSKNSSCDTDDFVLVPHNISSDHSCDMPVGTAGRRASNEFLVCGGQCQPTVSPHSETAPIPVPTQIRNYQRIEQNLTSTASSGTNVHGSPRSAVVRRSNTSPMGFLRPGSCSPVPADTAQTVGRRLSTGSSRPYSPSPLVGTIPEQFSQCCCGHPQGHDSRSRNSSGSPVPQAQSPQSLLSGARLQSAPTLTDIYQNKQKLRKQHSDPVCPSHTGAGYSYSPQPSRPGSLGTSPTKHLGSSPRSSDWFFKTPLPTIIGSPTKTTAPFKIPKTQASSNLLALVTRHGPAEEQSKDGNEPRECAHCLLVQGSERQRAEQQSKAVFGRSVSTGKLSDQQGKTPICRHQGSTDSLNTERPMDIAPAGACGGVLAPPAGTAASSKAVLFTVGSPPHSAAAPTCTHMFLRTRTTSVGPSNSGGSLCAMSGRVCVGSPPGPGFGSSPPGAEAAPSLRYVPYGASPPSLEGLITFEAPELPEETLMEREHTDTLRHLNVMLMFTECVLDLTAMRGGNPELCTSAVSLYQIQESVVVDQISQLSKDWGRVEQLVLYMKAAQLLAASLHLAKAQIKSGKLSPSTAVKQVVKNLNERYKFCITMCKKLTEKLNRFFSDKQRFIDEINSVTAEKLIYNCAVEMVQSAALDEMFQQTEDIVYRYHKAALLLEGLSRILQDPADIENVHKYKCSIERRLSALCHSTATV

various kinases [11] = target: various kinases (Homo sapiens, UniProt Q96GX5); assay: as above; conditions: MASTL
various kinases [12] = target: various kinases (Homo sapiens, UniProt Q9Y2K2); assay: as above; conditions: kinase SIK3; LanthaScreen Binding
various kinases [13] = target: various kinases (Homo sapiens, UniProt P06493); assay: as above; conditions: CDK1/cyclin A2
various kinases [14] = target: various kinases (Homo sapiens, UniProt Q9Y3S1); assay: as above; conditions: kinase WNK2; LanthaScreen Binding
various kinases [15] = target: various kinases (Homo sapiens, UniProt P22607, K650M); assay: as above; conditions: FGFR3 K650M
various kinases [16] = target: various kinases (Homo sapiens, UniProt Q15208); assay: as above; conditions: kinase STK38 (NDR); LanthaScreen Binding
various kinases [17] = target: various kinases (Homo sapiens, UniProt Q13705); assay: as above; conditions: ACVR2B
various kinases [18] = target: various kinases (Homo sapiens, UniProt O75716); assay: as above; conditions: kinase STK16 (PKL12); LanthaScreen Binding
hERG K+ channel = hERG K+ channel (Homo sapiens, UniProt Q12809); assay: biochemical
BT-12 AT/RT cells = assay: Confluency assay (IncuCyte ZOOM), BT-12; assay type: cell-based, human; conditions: increasing concentrations starting at 31.25nM, 48 hours, p-value=0.001
Method: For further evaluation of the effect of the PLK4 inhibitor over tumor cell proliferation, confluency was measured over a 48 hour period. MON, BT-12, G401 and DAOY cells were plated in 96-well plates with a density of 6 x 10^4 per well. […] Confluency was monitored for 48 hours by taking phase contrast images every 2 hours and measured using an IncuCyte ZOOM system (Essen BioScience, USA). Experiments were performed in triplicates.

MUSK = MUSK (Homo sapiens, UniProt O15146); assay: Kinase activity screening (SelectScreen), MUSK; assay type: biochemical; conditions: 10-point titration
ROS1 = ROS1 (Homo sapiens, UniProt P08922); assay: Kinase activity screening (SelectScreen), ROS1; assay type: biochemical; conditions: ZLYTE

Chain of various kinases (Homo sapiens, UniProt Q9Y2K2) (Q9Y2K2 whole entry): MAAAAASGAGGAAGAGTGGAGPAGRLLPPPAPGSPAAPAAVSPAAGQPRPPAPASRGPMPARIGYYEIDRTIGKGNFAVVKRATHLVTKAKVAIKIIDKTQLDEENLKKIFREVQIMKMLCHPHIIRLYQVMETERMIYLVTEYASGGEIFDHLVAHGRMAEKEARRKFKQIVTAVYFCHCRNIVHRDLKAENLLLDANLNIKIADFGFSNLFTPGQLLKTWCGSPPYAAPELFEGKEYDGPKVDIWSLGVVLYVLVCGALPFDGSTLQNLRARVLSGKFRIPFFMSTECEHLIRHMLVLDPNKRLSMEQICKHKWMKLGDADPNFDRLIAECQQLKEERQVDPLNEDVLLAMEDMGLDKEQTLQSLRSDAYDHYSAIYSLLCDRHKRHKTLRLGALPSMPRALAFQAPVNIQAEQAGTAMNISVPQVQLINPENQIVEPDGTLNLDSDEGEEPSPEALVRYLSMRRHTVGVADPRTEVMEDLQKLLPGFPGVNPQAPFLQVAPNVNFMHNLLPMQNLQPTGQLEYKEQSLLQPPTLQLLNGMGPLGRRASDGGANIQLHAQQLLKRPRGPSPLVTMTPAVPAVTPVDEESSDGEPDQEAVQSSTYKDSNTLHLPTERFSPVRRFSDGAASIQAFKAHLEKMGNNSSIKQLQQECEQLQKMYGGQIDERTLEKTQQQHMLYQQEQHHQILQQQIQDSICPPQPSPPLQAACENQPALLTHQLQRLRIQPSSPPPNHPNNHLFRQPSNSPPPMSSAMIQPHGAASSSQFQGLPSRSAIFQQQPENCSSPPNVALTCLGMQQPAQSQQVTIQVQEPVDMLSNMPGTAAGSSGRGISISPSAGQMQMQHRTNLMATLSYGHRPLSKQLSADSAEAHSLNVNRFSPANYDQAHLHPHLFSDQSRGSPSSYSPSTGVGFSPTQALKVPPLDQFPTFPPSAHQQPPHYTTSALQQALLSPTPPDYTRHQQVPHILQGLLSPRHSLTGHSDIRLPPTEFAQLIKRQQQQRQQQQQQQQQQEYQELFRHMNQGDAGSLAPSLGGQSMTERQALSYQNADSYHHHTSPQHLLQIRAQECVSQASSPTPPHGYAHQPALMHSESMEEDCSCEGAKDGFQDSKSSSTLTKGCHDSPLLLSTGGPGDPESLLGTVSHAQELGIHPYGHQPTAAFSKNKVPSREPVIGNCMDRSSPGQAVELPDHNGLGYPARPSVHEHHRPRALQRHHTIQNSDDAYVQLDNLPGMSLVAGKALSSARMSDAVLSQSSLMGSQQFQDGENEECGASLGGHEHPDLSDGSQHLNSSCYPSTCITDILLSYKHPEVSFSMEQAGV
Chain of various kinases (Homo sapiens, UniProt Q86UX6) (Q86UX6 whole entry): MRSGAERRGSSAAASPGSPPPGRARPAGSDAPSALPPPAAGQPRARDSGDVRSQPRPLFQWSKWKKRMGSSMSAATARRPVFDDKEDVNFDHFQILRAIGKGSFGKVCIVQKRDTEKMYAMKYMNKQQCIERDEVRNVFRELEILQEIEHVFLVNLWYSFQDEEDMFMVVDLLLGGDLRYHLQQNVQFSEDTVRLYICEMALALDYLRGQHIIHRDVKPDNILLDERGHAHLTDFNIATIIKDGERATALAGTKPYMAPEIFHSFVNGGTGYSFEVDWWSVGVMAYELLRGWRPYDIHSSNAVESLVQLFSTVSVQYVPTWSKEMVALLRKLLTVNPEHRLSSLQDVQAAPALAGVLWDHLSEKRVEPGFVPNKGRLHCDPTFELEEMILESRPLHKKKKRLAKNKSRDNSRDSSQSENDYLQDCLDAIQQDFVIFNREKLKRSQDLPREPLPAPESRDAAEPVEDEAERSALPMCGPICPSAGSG
Chain of various kinases (Homo sapiens, UniProt Q9Y3S1) (Q9Y3S1 whole entry): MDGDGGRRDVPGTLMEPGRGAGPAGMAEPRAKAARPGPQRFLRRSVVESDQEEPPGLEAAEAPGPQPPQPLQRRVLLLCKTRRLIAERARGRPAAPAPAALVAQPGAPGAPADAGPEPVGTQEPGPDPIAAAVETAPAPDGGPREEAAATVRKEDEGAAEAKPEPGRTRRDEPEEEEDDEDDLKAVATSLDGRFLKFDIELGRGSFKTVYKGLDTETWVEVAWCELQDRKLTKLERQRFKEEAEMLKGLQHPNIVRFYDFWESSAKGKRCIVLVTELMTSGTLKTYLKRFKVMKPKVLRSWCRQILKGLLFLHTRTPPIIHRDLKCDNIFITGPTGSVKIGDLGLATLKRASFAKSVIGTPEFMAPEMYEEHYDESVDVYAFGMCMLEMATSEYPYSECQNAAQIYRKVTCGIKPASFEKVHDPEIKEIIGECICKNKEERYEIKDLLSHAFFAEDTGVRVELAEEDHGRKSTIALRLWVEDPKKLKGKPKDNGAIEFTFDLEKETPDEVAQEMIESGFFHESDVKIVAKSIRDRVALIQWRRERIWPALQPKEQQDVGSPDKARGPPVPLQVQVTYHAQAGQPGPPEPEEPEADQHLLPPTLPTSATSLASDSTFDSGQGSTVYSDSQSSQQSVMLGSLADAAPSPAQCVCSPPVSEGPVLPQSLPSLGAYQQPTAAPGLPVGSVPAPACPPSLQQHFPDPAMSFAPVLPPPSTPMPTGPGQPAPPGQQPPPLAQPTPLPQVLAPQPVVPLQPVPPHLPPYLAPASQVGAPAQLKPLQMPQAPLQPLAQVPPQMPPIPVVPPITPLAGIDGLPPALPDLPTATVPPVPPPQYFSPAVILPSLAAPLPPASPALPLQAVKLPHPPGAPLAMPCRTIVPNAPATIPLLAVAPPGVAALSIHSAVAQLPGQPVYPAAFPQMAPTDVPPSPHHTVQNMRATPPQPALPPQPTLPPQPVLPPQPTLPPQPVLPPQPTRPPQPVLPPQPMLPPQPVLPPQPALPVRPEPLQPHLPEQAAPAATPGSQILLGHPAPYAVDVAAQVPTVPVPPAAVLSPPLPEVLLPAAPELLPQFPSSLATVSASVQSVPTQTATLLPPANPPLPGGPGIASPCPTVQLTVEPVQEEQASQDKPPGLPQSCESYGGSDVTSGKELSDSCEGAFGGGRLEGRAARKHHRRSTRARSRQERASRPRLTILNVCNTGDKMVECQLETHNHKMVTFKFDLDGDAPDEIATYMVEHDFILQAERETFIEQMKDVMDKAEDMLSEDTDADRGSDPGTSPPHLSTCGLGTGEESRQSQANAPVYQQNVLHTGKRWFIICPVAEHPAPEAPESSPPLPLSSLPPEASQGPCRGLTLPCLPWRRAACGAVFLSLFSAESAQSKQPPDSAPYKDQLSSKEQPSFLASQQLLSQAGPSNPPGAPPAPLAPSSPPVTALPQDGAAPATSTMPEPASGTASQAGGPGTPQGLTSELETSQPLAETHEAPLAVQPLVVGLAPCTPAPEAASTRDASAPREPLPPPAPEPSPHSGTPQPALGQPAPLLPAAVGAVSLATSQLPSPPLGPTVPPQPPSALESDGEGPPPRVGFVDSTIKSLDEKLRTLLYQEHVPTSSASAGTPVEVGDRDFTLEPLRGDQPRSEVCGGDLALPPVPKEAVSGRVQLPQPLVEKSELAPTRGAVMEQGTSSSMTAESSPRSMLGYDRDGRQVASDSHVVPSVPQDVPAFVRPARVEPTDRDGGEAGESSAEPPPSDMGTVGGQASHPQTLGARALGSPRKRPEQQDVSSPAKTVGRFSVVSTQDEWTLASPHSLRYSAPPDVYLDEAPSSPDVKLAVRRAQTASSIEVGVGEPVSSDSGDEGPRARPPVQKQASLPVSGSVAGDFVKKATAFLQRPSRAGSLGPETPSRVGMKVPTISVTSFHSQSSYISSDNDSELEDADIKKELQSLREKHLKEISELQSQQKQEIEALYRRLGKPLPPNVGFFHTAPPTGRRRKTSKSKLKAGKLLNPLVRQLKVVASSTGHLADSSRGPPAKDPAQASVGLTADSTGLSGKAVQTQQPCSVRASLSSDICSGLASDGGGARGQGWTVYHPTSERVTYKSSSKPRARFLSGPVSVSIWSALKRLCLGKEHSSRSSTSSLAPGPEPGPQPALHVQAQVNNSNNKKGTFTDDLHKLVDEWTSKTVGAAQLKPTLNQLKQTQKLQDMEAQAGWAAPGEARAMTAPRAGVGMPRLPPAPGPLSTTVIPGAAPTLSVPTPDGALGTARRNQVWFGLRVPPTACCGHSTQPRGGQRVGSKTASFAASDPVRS
Chain of various kinases (Homo sapiens, UniProt O75716) (O75716 whole entry): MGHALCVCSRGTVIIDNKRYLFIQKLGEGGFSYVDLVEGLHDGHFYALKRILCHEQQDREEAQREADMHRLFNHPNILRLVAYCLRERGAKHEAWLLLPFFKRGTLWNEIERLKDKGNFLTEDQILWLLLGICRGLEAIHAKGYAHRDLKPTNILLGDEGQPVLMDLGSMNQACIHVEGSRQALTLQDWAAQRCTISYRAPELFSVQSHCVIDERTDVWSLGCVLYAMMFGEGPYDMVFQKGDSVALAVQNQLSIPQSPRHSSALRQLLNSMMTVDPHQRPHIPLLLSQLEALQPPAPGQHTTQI
Chain of various kinases (Homo sapiens, UniProt Q15208) (Q15208 whole entry): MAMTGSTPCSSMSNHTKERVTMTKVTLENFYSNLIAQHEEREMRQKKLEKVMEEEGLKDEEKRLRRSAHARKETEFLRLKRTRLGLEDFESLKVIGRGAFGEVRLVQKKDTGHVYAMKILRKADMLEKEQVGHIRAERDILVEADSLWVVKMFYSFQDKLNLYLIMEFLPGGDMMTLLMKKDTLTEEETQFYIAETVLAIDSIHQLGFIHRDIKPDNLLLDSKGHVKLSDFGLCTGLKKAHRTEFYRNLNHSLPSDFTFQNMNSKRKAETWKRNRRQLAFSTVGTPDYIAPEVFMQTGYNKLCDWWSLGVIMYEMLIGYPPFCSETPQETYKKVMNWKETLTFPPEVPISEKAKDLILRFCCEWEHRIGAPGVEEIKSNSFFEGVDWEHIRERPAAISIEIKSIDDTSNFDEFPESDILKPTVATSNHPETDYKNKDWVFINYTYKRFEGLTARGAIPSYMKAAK

COc1ccc2c(c1)[C@]1(C[C@H]1c1ccc3c(/C=C/c4ccc(CN5C[C@@H](C)O[C@@H](C)C5)cc4)n[nH]c3c1)C(=O)N2 [CFI-400945]
% Inhibition (various kinases [1]): 72% | % Inhibition (various kinases [2]): 65% | pIC50 (various kinases [2]): 6.35 | % Inhibition (various kinases [3]): 44% and 36% | % Inhibition (various kinases [4]): 9% and 6% | % Inhibition (various kinases [5]): 7% and 6% | % Inhibition (various kinases [6]): -1% and 0% | % Inhibition Average (various kinases [7]): 15% | % Inhibition Duplicate #1 (various kinases [7]): 14% | % Inhibition Duplicate #2 (various kinases [7]): 17% | % Inhibition (various kinases [8]): -9% and -6% | % Inhibition (various kinases [9]): 7% and 2% | % Inhibition Average (various kinases [10]): 6% | % Inhibition Duplicate #1 (various kinases [10]): 2% | % Inhibition Duplicate #2 (various kinases [10]): 11% | % Inhibition (various kinases [11]): 16% and 15% | % Inhibition Average (various kinases [12]): 5% | % Inhibition Duplicate #1 (various kinases [12]): 10% | % Inhibition Duplicate #2 (various kinases [12]): 1% | % Inhibition (various kinases [13]): 24% and 17% | % Inhibition Average (various kinases [14]): -3% | % Inhibition Duplicate #1 (various kinases [14]): -6% | % Inhibition Duplicate #2 (various kinases [14]): 0% | % Inhibition (various kinases [15]): 44% and 48% | % Inhibition Average (various kinases [16]): 0% | % Inhibition Duplicate #1 (various kinases [16]): -5% | % Inhibition Duplicate #2 (various kinases [16]): 4% | % Inhibition (various kinases [17]): 4% and 0% | % Inhibition Average (various kinases [18]): 1% | % Inhibition Duplicate #1 (various kinases [18]): -1% | % Inhibition Duplicate #2 (various kinases [18]): 4% | pIC50 (hERG K+ channel): < 6.30 | FC, delay in reaching confluency (BT-12 AT/RT cells): 1.89 | pIC50 (MUSK): 7.31 | % Inhibition Duplicate #1 (ROS1): 99%
